In BindingDB's records for doi:10.1021/acs.jmedchem.7b00306 (Bayer, 2017):

Biological target: T1, Bromodomain-containing protein 1 (Homo sapiens, UniProt O95696)
T1 sequence (O95696 whole entry): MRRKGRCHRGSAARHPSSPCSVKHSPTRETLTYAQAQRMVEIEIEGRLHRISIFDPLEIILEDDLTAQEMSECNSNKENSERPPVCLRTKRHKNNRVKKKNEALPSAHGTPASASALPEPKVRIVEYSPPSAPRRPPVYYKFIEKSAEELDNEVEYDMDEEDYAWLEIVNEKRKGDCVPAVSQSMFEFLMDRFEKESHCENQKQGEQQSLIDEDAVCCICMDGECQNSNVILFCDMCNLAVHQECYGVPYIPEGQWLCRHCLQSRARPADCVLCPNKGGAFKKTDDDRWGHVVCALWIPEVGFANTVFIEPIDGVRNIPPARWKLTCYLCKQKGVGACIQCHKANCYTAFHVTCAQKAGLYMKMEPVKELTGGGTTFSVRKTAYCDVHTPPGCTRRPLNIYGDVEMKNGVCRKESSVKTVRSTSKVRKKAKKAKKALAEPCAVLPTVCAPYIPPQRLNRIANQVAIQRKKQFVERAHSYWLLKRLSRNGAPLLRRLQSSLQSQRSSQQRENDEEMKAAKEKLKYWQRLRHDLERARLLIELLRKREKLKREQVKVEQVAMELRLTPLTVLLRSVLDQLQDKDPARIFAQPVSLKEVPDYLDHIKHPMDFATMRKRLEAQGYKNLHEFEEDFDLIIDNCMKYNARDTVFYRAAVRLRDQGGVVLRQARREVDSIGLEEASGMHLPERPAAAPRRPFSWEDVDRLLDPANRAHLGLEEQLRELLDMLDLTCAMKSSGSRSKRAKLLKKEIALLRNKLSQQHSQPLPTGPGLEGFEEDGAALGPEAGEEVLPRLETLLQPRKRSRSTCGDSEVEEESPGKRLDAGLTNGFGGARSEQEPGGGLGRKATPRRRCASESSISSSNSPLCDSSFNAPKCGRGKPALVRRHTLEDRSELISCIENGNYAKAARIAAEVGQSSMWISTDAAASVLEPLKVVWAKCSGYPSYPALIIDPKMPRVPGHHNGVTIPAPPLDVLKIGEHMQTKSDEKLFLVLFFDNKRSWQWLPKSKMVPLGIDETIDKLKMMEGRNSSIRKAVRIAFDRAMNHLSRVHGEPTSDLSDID
Experiment: Alphascreen assay. Binding to BRD1A (domain start/stop: E556-A688) by alphascreen assay

- IC50: 1680 nM
Compound: COc1cc2c(cc1NS(=O)(=O)c1ccc(Br)cc1C)n(C)c(=O)n2C [OF-1]
